This is an account of results in paper PMC8592419 (PLoS ONE, 2021).

Where a SMILES comes first, the peptide text is derived from it.

The test relates to Mab ATCC19977 strain. Type of test: cell-based, Mycobacterium abscessus. The procedure: Briefly, serial dilutions of the AMPs were prepared with potassium phosphate buffer (PPB) from the concentration range of 3.125 to 400 μg/ml and then 50 μl of each dilution were added to each 96-well plate. Colonies of the isolate were suspended and then further diluted in Mueller-Hinton broth to obtain a final concentration of 1×10^3 CFU/ml (optimized according to the available AMP stock concentration). Fifty microliters of this inoculum were added to each well of the plates. The plates were incubated for 3 days at 37°C. Plain media and bacterial suspensions without AMPs were used as negative and positive controls. The MIC values were read and recorded. All assays were performed in duplicate and two independent experiments.
As to `CC(C)C[C@H](N)C(=O)NCC(=O)N[C@H](C(=O)N[C@@H](Cc1ccc(O)cc1)C(=O)O)[C@@H](C)O` [Pug-3] (H-LGTY-OH), the MIC values is more than 400 µg/mL.

In turn, `CC(C)[C@H](NC(=O)[C@@H](NC(=O)[C@H](CO)NC(=O)CNC(=O)[C@@H](NC(=O)[C@H](C)NC(=O)CN)C(C)C)C(C)C)C(=O)O` [Pug-2] (H-GAVGSVV-OH) registered an MIC values of more than 400 µg/mL.

Compound `CC(C)C[C@H](NC(=O)[C@H](CCCCN)NC(=O)[C@H](CC(C)C)NC(=O)[C@@H](N)CC(C)C)C(=O)N[C@@H](Cc1ccccc1)C(=O)N[C@@H](Cc1ccccc1)C(=O)N1CCC[C@H]1C(=O)N[C@@H](Cc1ccccc1)C(=O)N[C@@H](CC(C)C)C(=O)N[C@@H](CCC(=O)O)C(=O)N[C@H](C(=O)NCC(=O)N[C@@H](CCC(=O)O)C(=O)O)[C@@H](C)O` [Pug-1] (H-LLKLFFPFLETGE-OH) came in with an MIC values of more than 400 µg/mL.

On to `CC(C)C[C@H](NC(=O)[C@H](Cc1ccccc1)NC(=O)[C@H](CO)NC(=O)[C@@H]1CCCN1C(=O)[C@@H](N)Cc1ccccc1)C(=O)N[C@H](C(=O)NCC(=O)N[C@@H](CCCNC(=N)N)C(=O)O)C(C)C` [Pug-4] (H-FPSFLVGR-OH), for which the MIC values is more than 400 µg/mL.
